# Molecular target: pVHL:EloB:EloC (VBC) complex (Homo sapiens, UniProt P40337)
# Type: binding
# pVHL:EloB:EloC (VBC) complex, sequence (Q15369 17-112): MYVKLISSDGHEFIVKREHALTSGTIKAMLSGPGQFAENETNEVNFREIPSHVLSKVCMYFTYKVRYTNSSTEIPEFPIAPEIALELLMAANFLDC
# pVHL:EloB:EloC (VBC) complex, sequence (P40337 54-213): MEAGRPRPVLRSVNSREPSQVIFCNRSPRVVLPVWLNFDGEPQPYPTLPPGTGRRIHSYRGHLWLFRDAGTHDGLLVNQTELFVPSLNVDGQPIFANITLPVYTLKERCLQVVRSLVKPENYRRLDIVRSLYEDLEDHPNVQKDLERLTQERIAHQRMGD
# pVHL:EloB:EloC (VBC) complex, sequence (Q15370 1-104, further chain): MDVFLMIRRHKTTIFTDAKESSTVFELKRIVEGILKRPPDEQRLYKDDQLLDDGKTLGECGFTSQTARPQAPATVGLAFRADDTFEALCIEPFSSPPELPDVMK
smiles,measurement,value
"CC(=O)N[C@H](C(=O)N1C[C@H](O)C[C@H]1C(=O)NCc1ccc(-c2scnc2C)cc1)C(C)(C)C [ligand 7, (2S,4R)-1-((S)-2-Acetamido-3,3-dimethylbutanoyl)-4-hydroxy-N-(4-(4-methylthiazol-5-yl)benzyl)pyrrolidine-2-carboxamide]",increase in affinity compared to 5,~20 fold
